Test results published in patent publication US20260035356A1, “MODULATORS OF TYK2 PROTEOLYSIS AND ASSOCIATED METHODS OF USE” (Arvinas Operations, Inc., priority 2022, published 2026).
Entries after “also recorded” stand apart in the source; their conditions may differ.

Target: T1, TYK2 (Homo sapiens, UniProt P29597)
T1 construct: MOLT-4 cells (ATCC CRL-1582) were acquired from ATCC and maintained in RPMI-1640 medium; host or cells: MOLT-4 cells
Assay: TYK2 degradation in MOLT-4 cells (Western blot, TYK2 level relative to DMSO-treated cells)
Format: cell-based
Conditions: for Tyk2 Degradation Score: MOLT-4 cells, 24 hours after treatment, TYK2 level related to DMSO-only cells; for amount of TYK2 protein, normalized to the amount of GADPH protein, detected in cell lysates (FIG. 2B): compound alone, PROTAC 1 at 100 nM
Procedure: With reference to FIGS. 2A-2B. MOLT-4 cells (ATCC CRL-1582) were acquired from ATCC and maintained in RPMI-1640 medium supplemented with 10% fetal bovine serum (ATCC 30-2020), the combination henceforth referred to as “media”. Cells were maintained according to ATCC, (see product sheet), including incubation at 37° C. with 5% C02 in air other than during brief manipulations in a cell culture hood or during centrifugation.
18-24 hours before compound treatment, cells growing for 2-3 days in a flask were centrifuged at 200×g for 8 min, the media was aspirated, and fresh media was used to resuspend the cells. Cells were then counted, diluted with fresh media, and seeded at 650,000-750,000 cells/ml in 6-well plates, with 2 ml of volume per well.
Compounds to be tested were solubilized and stored in dimethyl sulfoxide (DMSO) at 10 mM. Compounds were first diluted in DMSO and then media so that the DMSO concentration was identical across treatments and the final concentration of DMSO was below 0.1% (typically 0.04%). Cells in each well of a 6-well plate were treated by adding 0.5 ml of fresh media containing varying concentrations of compounds to be tested—or only DMSO as a “no treatment” control.
Cells were harvested 24 hours after treatment by collecting all volume from each well into labeled microfuge tubes followed by centrifugation at 200×g for 8 min. Cells were washed in 1 ml of phosphate buffered saline (DPBS; Gibco 141190144) and then 0.5 ml of DPBS by centrifugation (as above) and aspiration. Cell pellets were resuspended by pipetting up-and-down in 100 microliters of ice cold RIPA buffer (Thermo, 89900) supplemented with 1× protease inhibitor cocktail and 1×EDTA (Pierce, 87786) and 1× phosphatase inhibitor cocktail (Pierce, 78420). Cell extracts were incubated on ice for 10 min and then centrifuged at 21,130×g for 20 min in a microfuge. Supernatants were collected and protein concentration for each sample was determined using a BCA kit (Thermo, 23225). Each sample was then denatured by adding 4×LDS buffer (Invitrogen, NP0008) to 1× followed by heating at 95° C. for 5 minutes.
Proteins were separated by electrophoresis using a XCell4 Surelock Midi-Cell apparatus (Invitrogen) and then transferred to PVDF membranes within iBlot 2 Transfer Stacks (Invitrogen, IB24001) using an iBlot 2 system (Invitrogen). Membranes were cut horizontally at a 50 kDa molecular weight marker and each piece of membrane was blocked in TBS-T+5% non-fat dry milk (NFDM) for 1-24 hours. Membranes were then incubated with antibody to TYK2 (Cell Signaling Technologies, 14193) or GAPDH (Cell Signaling Technologies, 5174; as loading control) in TBS-T+1% NFDM for 1 hour. Membranes were washed four times in TBS-T for 10 min each time, and then incubated with a HRP-conjugated secondary antibody (Cell Signaling Technologies, 7074) in TBS-T+1% NFDM for one hour. Membranes were washed four times for 10 min in TBS-T. Membranes were then incubated with reagents according to the SuperSignal West Femto Kit (Thermo, 34095) for 1 min at room temperature. Membranes were then imaged using a Gel Doc XR+ system (BioRad).
Captured images were processed using Image Lab software (BioRad). Using the volume tool, band intensities within rectangles of equal area were determined with the local subtraction method. The effects of compounds on TYK2 levels were related to the level of TYK2 from cells treated with only DMSO (no compound).

T1 sequence (P29597 whole entry): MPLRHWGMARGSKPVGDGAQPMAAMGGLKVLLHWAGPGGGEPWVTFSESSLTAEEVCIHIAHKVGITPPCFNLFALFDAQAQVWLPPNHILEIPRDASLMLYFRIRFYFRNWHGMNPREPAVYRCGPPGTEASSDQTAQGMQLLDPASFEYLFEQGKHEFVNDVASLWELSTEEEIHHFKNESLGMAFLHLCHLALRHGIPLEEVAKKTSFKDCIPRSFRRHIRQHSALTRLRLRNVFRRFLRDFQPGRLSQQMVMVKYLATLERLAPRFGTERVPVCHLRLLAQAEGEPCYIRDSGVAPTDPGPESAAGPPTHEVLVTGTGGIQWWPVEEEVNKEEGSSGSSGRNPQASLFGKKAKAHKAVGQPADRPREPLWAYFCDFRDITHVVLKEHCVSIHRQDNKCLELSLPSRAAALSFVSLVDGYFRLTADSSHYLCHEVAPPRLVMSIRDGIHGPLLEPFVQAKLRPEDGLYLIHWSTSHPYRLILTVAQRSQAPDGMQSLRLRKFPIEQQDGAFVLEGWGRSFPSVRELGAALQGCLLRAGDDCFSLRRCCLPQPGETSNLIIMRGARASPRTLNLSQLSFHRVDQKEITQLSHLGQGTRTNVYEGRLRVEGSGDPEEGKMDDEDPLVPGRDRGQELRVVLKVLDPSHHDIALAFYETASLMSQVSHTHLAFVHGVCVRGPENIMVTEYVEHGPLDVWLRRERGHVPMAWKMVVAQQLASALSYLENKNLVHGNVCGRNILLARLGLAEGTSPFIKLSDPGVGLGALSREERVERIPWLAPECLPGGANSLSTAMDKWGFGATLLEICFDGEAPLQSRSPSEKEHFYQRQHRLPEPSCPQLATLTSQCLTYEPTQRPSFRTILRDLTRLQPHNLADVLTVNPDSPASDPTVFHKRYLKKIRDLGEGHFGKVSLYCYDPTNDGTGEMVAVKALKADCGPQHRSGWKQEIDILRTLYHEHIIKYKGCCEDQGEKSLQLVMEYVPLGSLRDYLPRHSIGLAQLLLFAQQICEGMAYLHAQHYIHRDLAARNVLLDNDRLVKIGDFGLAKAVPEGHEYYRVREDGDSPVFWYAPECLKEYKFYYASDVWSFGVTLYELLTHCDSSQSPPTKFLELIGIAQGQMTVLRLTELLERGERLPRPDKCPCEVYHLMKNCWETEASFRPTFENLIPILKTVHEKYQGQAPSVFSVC

| SMILES | Tyk2 Degradation Score | amount of TYK2 protein, normalized to the amount of GADPH protein, detected in cell lysates (FIG. 2B) (24 hour treatment) | amount of TYK2 protein, normalized to GADPH, under competition with pomalidomide (FIG. 2B) (24 hour treatment, PROTAC 1 plus pomalidomide (competing for CRBN binding)) |
| --- | --- | --- | --- |
| CNC(=O)c1nnc(NC(=O)CCN2CCC(COCC3CCN(c4ccc5c(c4)C(=O)N(C4CCC(=O)NC4=O)C5=O)CC3)CC2)cc1Nc1cccc(-c2ncn(C)n2)c1OC (stereo not shown) [PROTAC 5, 6-(3-(4-(((1-(2-(2,6-Dioxopiperidin-3-yl)-1,3-dioxoisoindolin-5-yl)piperidin-4-yl)methoxy)methyl)piperidin-1-yl)propanamido)-4-((2-methoxy-3-(1-methyl-1H-1,2,4-triazol-3-yl)phenyl)amino)-N-methylpyridazine-3-carboxamide] | + (25-50% degradation) | – | – |
| Nc1cccc2c1C(=O)N(C1CCC(=O)NC1=O)C2=O (stereo not shown) [pomalidomide, reference compound] | – | does not significantly reduce the amount of TYK2 protein | – |
| CNC(=O)c1nnc(NC(=O)CCNCC2CCN(c3ccc4c(c3)C(=O)N(C3CCC(=O)NC3=O)C4=O)CC2)cc1Nc1cccc(-c2ncn(C)n2)c1OC (stereo not shown) [PROTAC 6, 6-(3-(((1-(2-(2,6-Dioxopiperidin-3-yl)-1,3-dioxoisoindolin-5-yl)piperidin-4-yl)methyl)amino)propanamido)-4-((2-methoxy-3-(1-methyl-1H-1,2,4-triazol-3-yl)phenyl)amino)-N-methylpyridazine-3-carboxamide] | ++ (51-75% degradation) | – | – |
| CNC(=O)c1nnc(NC(=O)CCN2CCN(c3ccc4c(c3)C(=O)N(C3CCC(=O)NC3=O)C4=O)CC2)cc1Nc1cccc(-c2ncn(C)n2)c1OC (stereo not shown) [PROTAC 2, 6-(3-(4-(2-(2,6-Dioxopiperidin-3-yl)-1,3-dioxoisoindolin-5-yl)piperazin-1-yl)propanamido)-4-((2-methoxy-3-(1-methyl-1H-1,2,4-triazol-3-yl)phenyl)amino)-N-methylpyridazine-3-carboxamide] | — (< 25% degradation) | – | – |
| CNC(=O)c1nnc(NC(=O)CCN2CCC(C3CN(c4ccc5c(c4)C(=O)N(C4CCC(=O)NC4=O)C5=O)C3)CC2)cc1Nc1cccc(-c2ncn(C)n2)c1OC (stereo not shown) [PROTAC 1, 6-(3-(4-(1-(2-(2,6-Dioxopiperidin-3-yl)-1,3-dioxoisoindolin-5-yl)azetidin-3-yl)piperidin-1-yl)propanamido)-4-((2-methoxy-3-(1-methyl-1H-1,2,4-triazol-3-yl)phenyl)amino)-N-methylpyridazine-3-carboxamide] | + (25-50% degradation) | effective at 100 nM in reducing the amount of TYK2 protein; also recorded: shows degradation | reversal of the PROTAC effect; also recorded: significantly reduces extent of degradation |
| CNC(=O)c1nnc(NC(=O)CCN2CCN(c3cc(N4CCN(c5ccc6c(c5)C(=O)N(C5CCC(=O)NC5=O)C6=O)CC4)ncn3)CC2)cc1Nc1cccc(-c2ncn(C)n2)c1OC (stereo not shown) [PROTAC 4, 6-(3-(4-(6-(4-(2-(2,6-Dioxopiperidin-3-yl)-1,3-dioxoisoindolin-5-yl)piperazin-1-yl)pyrimidin-4-yl)piperazin-1-yl)propanamido)-4-((2-methoxy-3-(1-methyl-1H-1,2,4-triazol-3-yl)phenyl)amino)-N-methylpyridazine-3-carboxamide] | + (25-50% degradation) | – | – |
| CNC(=O)c1nnc(NC(=O)CCN2CCC(CC3CN(c4ccc5c(c4)C(=O)N(C4CCC(=O)NC4=O)C5=O)C3)CC2)cc1Nc1cccc(-c2ncn(C)n2)c1OC (stereo not shown) [PROTAC 3, 6-(3-(4-((1-(2-(2,6-Dioxopiperidin-3-yl)-1,3-dioxoisoindolin-5-yl)azetidin-3-yl)methyl)piperidin-1-yl)propanamido)-4-((2-methoxy-3-(1-methyl-1H-1,2,4-triazol-3-yl)phenyl)amino)-N-methylpyridazine-3-carboxamide] | ++ (51-75% degradation) | – | – |
| CNC(=O)c1nnc(NC(=O)CCN2CC(CN3CCN(C4CCN(c5ccc6c(c5)C(=O)N(C5CCC(=O)NC5=O)C6=O)CC4)CC3)C2)cc1Nc1cccc(-c2ncn(C)n2)c1OC (stereo not shown) [PROTAC 7, 6-(3-(3-((4-(1-(2-(2,6-Dioxopiperidin-3-yl)-1,3-dioxoisoindolin-5-yl)piperidin-4-yl)piperazin-1-yl)methyl)azetidin-1-yl)propanamido)-4-((2-methoxy-3-(1-methyl-1H-1,2,4-triazol-3-yl)phenyl)amino)-N-methylpyridazine-3-carboxamide] | +++ (>75% degradation) | – | – |
| CNC(=O)c1nnc(NC(=O)CCN2CCC(CCC3CCN(c4ccc(Oc5ccc6c(c5)C(=O)N(C5CCC(=O)NC5=O)C6=O)cc4)CC3)CC2)cc1Nc1cccc(-c2ncn(C)n2)c1OC (stereo not shown) [PROTAC 9, 6-(3-(4-(2-(1-(4-((2-(2,6-Dioxopiperidin-3-yl)-1,3-dioxoisoindolin-5-yl)oxy)phenyl)piperidin-4-yl)ethyl)piperidin-1-yl)propanamido)-4-((2-methoxy-3-(1-methyl-1H-1,2,4-triazol-3-yl)phenyl)amino)-N-methylpyridazine-3-carboxamide] | ++ (51-75% degradation) | – | – |
| CNC(=O)c1nnc(NC(=O)CCN2CCC(CCCN3CCN(c4ccc5c(c4)C(=O)N(C4CCC(=O)NC4=O)C5=O)CC3)CC2)cc1Nc1cccc(-c2ncn(C)n2)c1OC (stereo not shown) [PROTAC 8, 6-(3-(4-(3-(4-(2-(2,6-Dioxopiperidin-3-yl)-1,3-dioxoisoindolin-5-yl)piperazin-1-yl)propyl)piperidin-1-yl)propanamido)-4-((2-methoxy-3-(1-methyl-1H-1,2,4-triazol-3-yl)phenyl)amino)-N-methylpyridazine-3-carboxamide] | +++ (>75% degradation) | – | – |
| CNC(=O)c1nnc(NC(=O)CCN2CCC(CNc3ccc4c(c3)C(=O)N(C3CCC(=O)NC3=O)C4=O)CC2)cc1Nc1cccc(-c2ncn(C)n2)c1OC (stereo not shown) [PROTAC 10, 6-(3-(4-(((2-(2,6-Dioxopiperidin-3-yl)-1,3-dioxoisoindolin-5-yl)amino)methyl)piperidin-1-yl)propanamido)-4-((2-methoxy-3-(1-methyl-1H-1,2,4-triazol-3-yl)phenyl)amino)-N-methylpyridazine-3-carboxamide] | ++ (51-75% degradation) | – | – |
